From patent EP4603105A1, “PHARMACEUTICAL COMPOSITION CONTAINING CYCLIC COMPOUND HAVING SELECTIVE KRAS INHIBITORY EFFECT AGAINST HRAS AND NRAS” (CHUGAI SEIYAKU KABUSHIKI KAISHA, priority 2022, dated 2024) come the findings set out here.

The target in test [1] is GDP-bound KRAS wild-type protein (Homo sapiens, UniProt P01116). Put plainly: Binding to KRAS by surface plasmon resonance (SPR), dissociation constant KD. In outline:
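Running buffer contained 10 µM GDP and 10 mM MgCl2 to keep RAS in the GDP state, with 4% DMSO at pH 7.4. Compounds were flowed at 100 µL/min in 75 s steps of rising concentration over captured biotin-Avi RAS at 30°C. Sensorgrams were fitted 1:1 for KD.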
(SPR reads the build-up and loss of mass on a sensor chip optically.)

Another test addresses HRAS wild-type protein (Homo sapiens, UniProt P01112). Put plainly: Binding to HRAS by surface plasmon resonance (SPR), KD and KD ratio to KRAS. In a few lines:
(§1)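 Biotinylated GDP-bound RAS was captured at about 100–300 RU. Running buffer: HBS pH 7.4, 10 mM MgCl2, 10 µM GDP, 1 mM DTT, 0.01% Tween 20, 4% DMSO.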

Test [2] has as its system human lung cancer strain NCI-H441. The class given is cell-based. In outline:
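Step one: dispense the test compound in serial DMSO dilutions. Step three: add the reagent and measure […].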

The target of test [3] is GDP-bound NRAS wild-type protein (Homo sapiens, UniProt P01111). Put plainly: Binding to NRAS by surface plasmon resonance (SPR), KD and KD ratio to KRAS. In outline: as §1
The mark [4] stands for this setting: Single Cycle Kinetics, 1:1 binding model.
The mark [5] stands for this setting: ratio of the KD value with respect to HRAS wild-type protein to the KD value with respect to KRAS.
The mark [6] stands for this setting: ratio of the KD value with respect to GDP-bound NRAS wild-type protein to the KD value with respect to KRAS.
Where [7] appears, read: ratio of KD for HRAS wild-type protein to KD for KRAS.
Where [8] appears, read: ratio of KD for GDP-bound NRAS wild-type protein to KD for KRAS.

Chain of GDP-bound NRAS wild-type protein (P01111 whole entry): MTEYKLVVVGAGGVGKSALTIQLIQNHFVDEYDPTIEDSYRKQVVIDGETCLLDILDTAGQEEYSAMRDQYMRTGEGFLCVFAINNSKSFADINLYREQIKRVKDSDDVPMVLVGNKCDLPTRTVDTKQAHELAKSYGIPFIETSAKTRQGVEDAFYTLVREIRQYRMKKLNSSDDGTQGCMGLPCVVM
Chain of GDP-bound KRAS wild-type protein (P01116 1-188 isoform P01116-2): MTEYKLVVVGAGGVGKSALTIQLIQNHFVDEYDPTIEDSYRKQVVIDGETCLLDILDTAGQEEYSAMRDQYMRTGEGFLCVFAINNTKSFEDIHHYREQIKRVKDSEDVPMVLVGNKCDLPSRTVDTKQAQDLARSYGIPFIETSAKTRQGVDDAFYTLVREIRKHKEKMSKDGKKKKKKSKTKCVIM
Chain of HRAS wild-type protein (P01112 whole entry): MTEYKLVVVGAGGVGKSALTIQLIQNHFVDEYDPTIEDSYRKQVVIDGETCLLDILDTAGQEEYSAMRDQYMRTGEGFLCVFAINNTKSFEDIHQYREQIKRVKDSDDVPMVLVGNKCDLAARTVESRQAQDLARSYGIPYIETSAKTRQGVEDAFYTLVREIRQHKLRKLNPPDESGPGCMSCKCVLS

Compound `CCC[C@H]1C(=O)N[C@@H]([C@@H](C)CC)C(=O)N(C)CC(=O)N(C)[C@H]2C/C=C\CCN(C2=O)[C@@H](Cc2ccc(C)cc2)C(=O)N(C)CC(=O)N[C@@H](CCc2ccc(C(F)(F)F)c(OC)c2)C(=O)N2C[C@H](C)C[C@H]2C(=O)NC2(CC(C)(C)C2)C(=O)N(C)[C@@H](C2CCCC2)C(=O)N(C)[C@H](C(=O)N(C)C)CC(=O)N1C` [PP1890] came in with a Kd in test [1] (setting [4]) of 0.15 nM. Moreover, at HRAS wild-type protein (ratio of KD value for HRAS wild-type protein to KD value for KRAS (SPR)), the “HRAS /KRAS” value is “B (a compound having 3 or more and less than 10 is denoted as B)”. The IC50 in test [2] was found to be 3.6 nM. The “NRAS /KRAS” value in test [3] (ratio of KD value for GDP-bound NRAS wild-type protein to KD value for KRAS (SPR)) was “A (a compound having 10 or more and less than 20 is denoted as A)”.

On to `CCCOC[C@H]1C(=O)N[C@@H]([C@@H](C)CC)C(=O)N(C)CC(=O)N(C)[C@H]2C/C=C\CCN(C2=O)[C@@H](Cc2ccc(C)cc2)C(=O)N(C)CC(=O)N[C@@H](CCc2ccc(C(F)(F)F)c(OC)c2)C(=O)N2C[C@H](OCC)C[C@H]2C(=O)N(C)C2(CCC2)C(=O)N(C)[C@@H](C2CCCC2)C(=O)N(C)[C@H](C(=O)N(C)C)CC(=O)N1C` [PP2326], for which the affinity in test [1] (setting [4]), expressed as Kd, was 0.031 nM. Besides, the “HRAS /KRAS” value at HRAS wild-type protein (setting [5]) was “B (a compound having 3 or more and less than 10 is denoted as B)”. In test [2], this compound showed an IC50 of 1.6 nM. In addition, in test [3] (setting [6]), the “NRAS /KRAS” value was “A (a compound having 10 or more and less than 20 is denoted as A)”.

With `CCO[C@@H]1C[C@H]2C(=O)NC3(CC(C)(C)C3)C(=O)N(C)[C@@H](C(CC)CC)C(=O)N(C)[C@H](C(=O)N(C)C)CC(=O)N(C)[C@@H](CC3CC3)C(=O)N[C@@H]([C@@H](C)CC)C(=O)N(C)CC(=O)N(C)[C@H]3C/C=C\CCN(C3=O)[C@@H](Cc3ccc(C)cc3)C(=O)N(C)CC(=O)N[C@@H](CCc3ccc(C(F)(F)F)c(Cl)c3)C(=O)N2C1` [PP2142], in test [1] (setting [4]), the Kd stood at 0.3 nM. In addition, the “HRAS /KRAS” value at HRAS wild-type protein (setting [5]) is “A (a compound having 10 or more and less than 20 is denoted as A)”. The same compound gave an IC50 in test [2] of 10.3 nM. The “NRAS /KRAS” value in test [3] (setting [6]) is on record as “AA (a compound having 20 or more is denoted as AA)”.

In test [1] (setting [4]), `CCO[C@@H]1C[C@H]2C(=O)NC3(CCC3)C(=O)N(C)[C@@H](C3CCCC3)C(=O)N(C)[C@H](C(=O)N(C)C)CC(=O)N(C)[C@@H](CC3CCCC3)C(=O)N[C@@H]([C@@H](C)CC)C(=O)N(C)CC(=O)N(C)[C@H]3CCCCCN(C3=O)[C@@H](Cc3ccc(C(F)(F)F)cc3)C(=O)N(C)CC(=O)N[C@@H](CCc3cc(F)c(C(F)(F)F)c(F)c3)C(=O)N2C1` [PP0670] had a Kd of 0.28 nM. For the same compound, on HRAS wild-type protein (setting [5]), the “HRAS /KRAS” value was “B (a compound having 3 or more and less than 10 is denoted as B)”. Also, the 50% inhibitory concentration (IC50) in test [2] worked out at 11.3 nM. Besides, the “NRAS /KRAS” value in test [3] (setting [6]) was “B (a compound having 3 or more and less than 10 is denoted as B)”.

On to `CC[C@H](C)[C@@H]1NC(=O)[C@H](CC(C)C)N(C)C(=O)C[C@@H](C(=O)N2CCOCC2)N(C)C(=O)[C@H](C2CCCC2)N(C)C(=O)C2(CCC2)NC(=O)[C@@H]2C[C@@H](OCC3CC3)CN2C(=O)[C@H](CCc2cc(F)c(C(F)(F)F)c(F)c2)NC(=O)CN(C)C(=O)[C@H](Cc2ccc(C(F)(F)F)cc2)N2CCCC[C@@H](C2=O)N(C)C(=O)CN(C)C1=O` [PP1014], for which binding in test [1] (Single Cycle Kinetics) was put at a Kd of 1.1 nM. In addition, at HRAS wild-type protein (setting [7]), the “HRAS /KRAS” value is “C (A compound having a KD ratio of 0.1 or more and less than 3 is denoted as C)”. In test [2], this compound displayed an IC50 of 114 nM. The “NRAS /KRAS” value in test [3] (setting [8]) was “C (A compound having a KD ratio of 0.1 or more and less than 3 is denoted as C)”.

In test [1] (1:1 binding model), `CCC[C@H]1C(=O)N[C@@H](C2CCCC2)C(=O)N(C)CC(=O)N(C)[C@H]2C/C=C\CCN(C2=O)[C@@H](Cc2ccc(C)cc2)C(=O)N(C)CC(=O)N[C@@H](CCc2cc(F)c(C(F)(F)F)c(F)c2)C(=O)N2C[C@H](OCC)C[C@H]2C(=O)NC2(CC(C)(C)C2)C(=O)N(C)[C@@H](C2CCCC2)C(=O)N(C)[C@H](C(=O)N(C)C)CC(=O)N1C` [PP2988] returned a Kd of 0.29 nM. In addition, the “HRAS /KRAS” value on HRAS wild-type protein (setting [7]) is “B (a compound having 3 or more and less than 10 is denoted as B)”. In test [2], half-maximal inhibition (IC50) was put at 8.1 nM. For the same compound, the “NRAS /KRAS” value in test [3] (setting [8]) was “B (a compound having 3 or more and less than 10 is denoted as B)”.

As a reminder, the Kd is a measure of binding affinity in units of concentration. One may read the IC50 as the concentration at which inhibition is half-maximal. Read a high IC50 as lower potency.
